# According to ChEMBL document CHEMBL3351246, “Discovery of triazines as selective PDE4B versus PDE4D inhibitors” (Bioorg Med Chem Lett, 2014):
# Target: T1, 3',5'-cyclic-AMP phosphodiesterase 4B (Homo sapiens, UniProt Q07343)
# Assay: Inhibition of human PDE4B
# Settings: not given; call rule not given here
# T1 sequence (Q07343 whole entry): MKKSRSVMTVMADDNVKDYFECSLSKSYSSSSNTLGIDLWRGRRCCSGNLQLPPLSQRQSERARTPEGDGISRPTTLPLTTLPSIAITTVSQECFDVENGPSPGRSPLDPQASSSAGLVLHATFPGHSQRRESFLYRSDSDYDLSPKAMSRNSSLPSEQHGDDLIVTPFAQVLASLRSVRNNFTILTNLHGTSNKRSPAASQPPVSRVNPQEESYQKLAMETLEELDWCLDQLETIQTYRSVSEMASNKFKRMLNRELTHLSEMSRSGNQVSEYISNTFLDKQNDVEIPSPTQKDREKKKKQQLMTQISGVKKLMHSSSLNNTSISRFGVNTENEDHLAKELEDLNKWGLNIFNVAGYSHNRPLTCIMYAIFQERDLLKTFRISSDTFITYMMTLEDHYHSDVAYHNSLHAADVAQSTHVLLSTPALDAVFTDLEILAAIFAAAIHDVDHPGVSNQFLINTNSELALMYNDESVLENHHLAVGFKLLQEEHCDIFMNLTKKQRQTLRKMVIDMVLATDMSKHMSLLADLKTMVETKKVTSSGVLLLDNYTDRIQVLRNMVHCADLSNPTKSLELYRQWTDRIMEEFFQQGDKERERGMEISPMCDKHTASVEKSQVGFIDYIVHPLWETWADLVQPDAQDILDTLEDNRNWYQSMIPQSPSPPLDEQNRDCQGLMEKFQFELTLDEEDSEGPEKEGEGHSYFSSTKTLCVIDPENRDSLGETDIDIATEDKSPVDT
row,IC50,Compound
1,Not Active,O=C1NCCN1c1ccc(Nc2nc(-c3cccc(Cl)c3)nc(C3CC3)n2)cc1

# Same assay, conditions: read-out: IC50
row,IC50 [nM],Compound
1,251,O=C(O)Cc1ccc(Nc2nc(-c3ccc(Cl)s3)nc(C3CC3)n2)cc1
2,237,O=C(O)Cc1ccc(Nc2nc(-c3cccc(Cl)c3)nc(C3CC3)n2)cc1
3,3770,O=C(O)Cc1ccc(Nc2nc(-c3ccc(Cl)cc3)nc(C3CC3)n2)cc1
4,1440,O=C(O)Cc1ccc(Nc2nc(-c3cccc(F)c3)nc(C3CC3)n2)cc1
5,8820,CC(C)c1nc(Nc2ccc(F)cc2)nc(-c2ccc(Cl)s2)n1
6,12,CCc1nc(Nc2ccc(C#N)cc2)nc(-c2cccc(Cl)c2)n1
7,1390,CCc1nc(Nc2ccc(F)cc2)nc(-c2ccc(Cl)s2)n1
8,46,O=C(O)c1ccc(Nc2nc(-c3cccc(Cl)c3)nc(C3CC3)n2)cc1
9,126,CCc1nc(Nc2ccc(-c3nn[nH]n3)cc2)nc(-c2cccc(Cl)c2)n1
10,1460,CCc1nc(Nc2ccc(CC(=O)O)cc2)nc(-c2ccc(F)cc2)n1
11,69,CCc1nc(Nc2ccc(Cc3nnn[nH]3)cc2)nc(-c2cccc(Cl)c2)n1
12,18800,Cc1nc(Nc2ccc(CC(=O)O)cc2)nc(-c2ccco2)n1
13,845,O=C(O)Cc1ccc(CNc2nc(-c3cccc(Cl)c3)nc(C3CC3)n2)cc1
14,135,O=C1CCC(NC2=NC(C3CC3)NC(c3cccc(Cl)c3)=N2)CN1 (stereo not given)
15,402,CCc1nc(Nc2ccc(NS(N)(=O)=O)cc2)nc(-c2cccc(Cl)c2)n1
16,2280,O=C(O)Cc1ccc(CNc2nc(-c3ccc(Cl)cc3)nc(C3CC3)n2)cc1
17,220,CC(C)c1nc(Nc2ccc(C(=O)O)cc2)nc(-c2ccc(Cl)s2)n1
18,135,O=C(O)c1ccc(Nc2nc(-c3ccc(Cl)cc3)nc(C3CC3)n2)cc1
19,1570,CCc1nc(Nc2ccc(C(C)(C)C(=O)O)cc2)nc(-c2cccc(Cl)c2)n1
20,383,CCc1nc(Nc2ccc(CC(=O)O)cc2)nc(-c2ccc(Cl)s2)n1
21,261,CCc1nc(Nc2ccc(C(=O)O)cc2)nc(-c2ccc(Cl)s2)n1
22,4050,Cc1nc(Nc2ccc(C(=O)O)cc2)nc(-c2ccc(Cl)s2)n1
23,165,CCc1nc(Nc2ccc(CC#N)cc2)nc(-c2cccc(Cl)c2)n1
24,2450,CCCc1nc(Nc2ccc(CC(=O)O)cc2)nc(-c2ccc(Cl)s2)n1
25,1940,CC(C)c1nc(Nc2ccc(CC(=O)O)cc2)nc(-c2ccc(Cl)s2)n1
26,2780,CCc1nc(Nc2ccc(CC(=O)O)cc2)nc(-c2ccoc2)n1
27,1290,Cc1nc(Nc2ccc(CC(=O)O)cc2)nc(-c2ccc(Cl)s2)n1
28,1860,O=C(O)Cc1ccc(Oc2nc(-c3cccc(Cl)c3)nc(C3CC3)n2)cc1

row,Compound,IC50 [nM]
1,CCc1nc(Nc2ccc(C(=O)O)cc2)nc(-c2cccc(Cl)c2)n1,241
2,CCc1nc(Nc2ccc(C(C)C(=O)O)cc2)nc(-c2cccc(Cl)c2)n1 (stereo not given),1090
3,CCc1nc(Nc2ccc(CC(=O)O)cc2)nc(-c2cccc(Cl)c2)n1,781

# Target: T2, 3',5'-cyclic-AMP phosphodiesterase 4D (Homo sapiens, UniProt Q08499)
# Assay: Inhibition of human PDE4D
# Settings: not given
# T2 sequence (Q08499 whole entry): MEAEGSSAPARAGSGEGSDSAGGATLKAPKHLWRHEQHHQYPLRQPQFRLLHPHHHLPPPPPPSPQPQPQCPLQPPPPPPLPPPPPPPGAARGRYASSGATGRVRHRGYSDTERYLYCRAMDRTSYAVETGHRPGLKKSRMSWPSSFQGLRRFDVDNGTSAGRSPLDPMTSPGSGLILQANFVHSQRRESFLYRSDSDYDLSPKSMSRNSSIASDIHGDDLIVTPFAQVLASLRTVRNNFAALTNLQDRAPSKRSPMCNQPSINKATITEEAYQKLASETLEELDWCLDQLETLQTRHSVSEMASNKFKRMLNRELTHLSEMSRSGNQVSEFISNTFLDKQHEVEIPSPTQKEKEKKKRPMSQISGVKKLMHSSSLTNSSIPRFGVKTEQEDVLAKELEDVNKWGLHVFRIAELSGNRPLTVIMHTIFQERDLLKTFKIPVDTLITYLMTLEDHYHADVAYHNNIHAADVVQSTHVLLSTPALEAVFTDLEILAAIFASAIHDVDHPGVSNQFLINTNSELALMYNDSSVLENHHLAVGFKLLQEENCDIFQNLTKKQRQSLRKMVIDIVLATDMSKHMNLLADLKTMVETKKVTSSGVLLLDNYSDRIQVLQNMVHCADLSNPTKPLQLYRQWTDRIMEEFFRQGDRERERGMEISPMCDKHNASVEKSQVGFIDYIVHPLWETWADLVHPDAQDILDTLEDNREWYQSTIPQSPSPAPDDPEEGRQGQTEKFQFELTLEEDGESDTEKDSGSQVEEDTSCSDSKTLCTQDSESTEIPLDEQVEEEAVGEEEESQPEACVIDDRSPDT
row,IC50,Compound
1,Not Active,O=C1NCCN1c1ccc(Nc2nc(-c3cccc(Cl)c3)nc(C3CC3)n2)cc1

# Same assay, conditions: read-out: IC50
row,IC50 [nM],Compound
1,1490,O=C(O)Cc1ccc(Nc2nc(-c3ccc(Cl)s3)nc(C3CC3)n2)cc1
2,1180,O=C(O)Cc1ccc(Nc2nc(-c3cccc(Cl)c3)nc(C3CC3)n2)cc1
3,5610,O=C(O)Cc1ccc(Nc2nc(-c3ccc(Cl)cc3)nc(C3CC3)n2)cc1
4,2110,O=C(O)Cc1ccc(Nc2nc(-c3cccc(F)c3)nc(C3CC3)n2)cc1
5,886,CC(C)c1nc(Nc2ccc(F)cc2)nc(-c2ccc(Cl)s2)n1
6,13,CCc1nc(Nc2ccc(C#N)cc2)nc(-c2cccc(Cl)c2)n1
7,207,CCc1nc(Nc2ccc(F)cc2)nc(-c2ccc(Cl)s2)n1
8,20,O=C(O)c1ccc(Nc2nc(-c3cccc(Cl)c3)nc(C3CC3)n2)cc1
9,132,CCc1nc(Nc2ccc(-c3nn[nH]n3)cc2)nc(-c2cccc(Cl)c2)n1
10,727,CCc1nc(Nc2ccc(CC(=O)O)cc2)nc(-c2ccc(F)cc2)n1
11,63,CCc1nc(Nc2ccc(Cc3nnn[nH]3)cc2)nc(-c2cccc(Cl)c2)n1
12,22300,Cc1nc(Nc2ccc(CC(=O)O)cc2)nc(-c2ccco2)n1
13,726,O=C(O)Cc1ccc(CNc2nc(-c3cccc(Cl)c3)nc(C3CC3)n2)cc1
14,268,O=C1CCC(NC2=NC(C3CC3)NC(c3cccc(Cl)c3)=N2)CN1 (stereo not given)
15,160,CCc1nc(Nc2ccc(NS(N)(=O)=O)cc2)nc(-c2cccc(Cl)c2)n1
16,859,O=C(O)Cc1ccc(CNc2nc(-c3ccc(Cl)cc3)nc(C3CC3)n2)cc1
17,219,CC(C)c1nc(Nc2ccc(C(=O)O)cc2)nc(-c2ccc(Cl)s2)n1
18,268,O=C(O)c1ccc(Nc2nc(-c3ccc(Cl)cc3)nc(C3CC3)n2)cc1
19,600,CCc1nc(Nc2ccc(C(C)(C)C(=O)O)cc2)nc(-c2cccc(Cl)c2)n1
20,865,CCc1nc(Nc2ccc(CC(=O)O)cc2)nc(-c2ccc(Cl)s2)n1
21,251,CCc1nc(Nc2ccc(C(=O)O)cc2)nc(-c2ccc(Cl)s2)n1
22,7,CCc1nc(Nc2ccc(CC#N)cc2)nc(-c2cccc(Cl)c2)n1
23,3580,CC(C)c1nc(Nc2ccc(CC(=O)O)cc2)nc(-c2ccc(Cl)s2)n1
24,2270,O=C(O)Cc1ccc(Oc2nc(-c3cccc(Cl)c3)nc(C3CC3)n2)cc1

row,Compound,IC50 [nM]
1,CCc1nc(Nc2ccc(C(=O)O)cc2)nc(-c2cccc(Cl)c2)n1,213
2,CCc1nc(Nc2ccc(C(C)C(=O)O)cc2)nc(-c2cccc(Cl)c2)n1 (stereo not given),96
3,CCc1nc(Nc2ccc(CC(=O)O)cc2)nc(-c2cccc(Cl)c2)n1,681

# Species: Homo sapiens
# Assay: Selectivity index, ratio of IC50 for human PDE4D to IC50 for human PDE4B
# Settings: not given
row,Ratio IC50,Compound
1,5.9,O=C(O)Cc1ccc(Nc2nc(-c3ccc(Cl)s3)nc(C3CC3)n2)cc1
2,1,CCc1nc(Nc2ccc(-c3nnn[nH]3)cc2)nc(-c2cccc(Cl)c2)n1
3,5,O=C(O)Cc1ccc(Nc2nc(-c3cccc(Cl)c3)nc(C3CC3)n2)cc1
4,1.5,O=C(O)Cc1ccc(Nc2nc(-c3ccc(Cl)cc3)nc(C3CC3)n2)cc1
5,1.5,O=C(O)Cc1ccc(Nc2nc(-c3cccc(F)c3)nc(C3CC3)n2)cc1
6,1.1,CCc1nc(Nc2ccc(C#N)cc2)nc(-c2cccc(Cl)c2)n1
7,0.15,CCc1nc(Nc2ccc(F)cc2)nc(-c2ccc(Cl)s2)n1
8,0.4,O=C(O)c1ccc(Nc2nc(-c3cccc(Cl)c3)nc(C3CC3)n2)cc1
9,0.5,CCc1nc(Nc2ccc(CC(=O)O)cc2)nc(-c2ccc(F)cc2)n1
10,0.9,CCc1nc(Nc2ccc(Cc3nnn[nH]3)cc2)nc(-c2cccc(Cl)c2)n1
11,1.2,Cc1nc(Nc2ccc(CC(=O)O)cc2)nc(-c2ccco2)n1
12,0.86,O=C(O)Cc1ccc(CNc2nc(-c3cccc(Cl)c3)nc(C3CC3)n2)cc1
13,2,O=C1CCC(NC2=NC(C3CC3)NC(c3cccc(Cl)c3)=N2)CN1 (stereo not given)
14,0.4,CCc1nc(Nc2ccc(NS(N)(=O)=O)cc2)nc(-c2cccc(Cl)c2)n1
15,0.38,O=C(O)Cc1ccc(CNc2nc(-c3ccc(Cl)cc3)nc(C3CC3)n2)cc1
16,1,CC(C)c1nc(Nc2ccc(C(=O)O)cc2)nc(-c2ccc(Cl)s2)n1
17,2,O=C(O)c1ccc(Nc2nc(-c3ccc(Cl)cc3)nc(C3CC3)n2)cc1
18,0.4,CCc1nc(Nc2ccc(C(C)(C)C(=O)O)cc2)nc(-c2cccc(Cl)c2)n1
19,2.3,CCc1nc(Nc2ccc(CC(=O)O)cc2)nc(-c2ccc(Cl)s2)n1
20,1,CCc1nc(Nc2ccc(C(=O)O)cc2)nc(-c2ccc(Cl)s2)n1
21,0.04,CCc1nc(Nc2ccc(CC#N)cc2)nc(-c2cccc(Cl)c2)n1
22,1.8,CC(C)c1nc(Nc2ccc(CC(=O)O)cc2)nc(-c2ccc(Cl)s2)n1
23,1.2,O=C(O)Cc1ccc(Oc2nc(-c3cccc(Cl)c3)nc(C3CC3)n2)cc1

row,Compound,Ratio IC50
1,CCc1nc(Nc2ccc(C(=O)O)cc2)nc(-c2cccc(Cl)c2)n1,0.9
2,CCc1nc(Nc2ccc(C(C)C(=O)O)cc2)nc(-c2cccc(Cl)c2)n1 (stereo not given),0.09
3,CCc1nc(Nc2ccc(CC(=O)O)cc2)nc(-c2cccc(Cl)c2)n1,0.9

# Target: T1, 3',5'-cyclic-AMP phosphodiesterase 4B
# Assay: Inhibition of human PDE4B1
# Settings: not given
row,IC50 [µM],Compound
1,6.7,CCOc1nc(Nc2ccc(OC)cc2)nc(OCC)n1
2,0.055,CCc1c(C)nc(-c2ccc(Cl)s2)nc1Nc1ccc(CC(=O)O)cc1

# Target: T2, 3',5'-cyclic-AMP phosphodiesterase 4D
# Assay: Inhibition of human PDE4D7
# Settings: not given
row,IC50 [nM],Compound
1,2300,CCOc1nc(Nc2ccc(OC)cc2)nc(OCC)n1
2,2000,CCc1c(C)nc(-c2ccc(Cl)s2)nc1Nc1ccc(CC(=O)O)cc1
